Values quoted from earlier work, collected in patent publication US7390505B2, “Nanoparticulate topiramate formulations” (Elan Pharma International, Ltd., priority 2003, dated 2008).

Experiments:
[1] = not given; remark: listed apart in the source
[2] = human, in vivo

Q: With `CC1(C)O[C@@H]2[C@@H](CO[C@@]3(COS(N)(=O)=O)OC(C)(C)O[C@@H]23)O1` [Topiramate, 2,3:4,5-Di-O-isopropylidene-β-D-fructopyranose sulfamate] as the molecule, how does the “solubility in organic solvents” value (acetone, chloroform, dimethylsulfoxide, and ethanol) read?
A: The value was “freely soluble”.

Q: And the “solubility in alkaline solutions” value (solutions containing sodium hydroxide or sodium phosphate, pH of 9 to 10)?
A: Its value is “most soluble”.

Q: And the “patients who withdrew because of side effects” value ([1]; 96 mg/d or 192 mg/d)?
A: Its value is 19%.

Q: What about the “withdrawal due to depression” value ([1]; in vivo) of the same molecule?
A: The value was 3%.

Q: And the “withdrawal due to difficulty with memory” value ([1]; in vivo)?
A: The value was 3%.

Q: What about the “withdrawal due to paraesthesia” value ([1]; in vivo) of the same molecule?
A: The value was 5 % of patients.

Q: What about the “incidence of ataxia, impaired concentration, confusion, dizziness, fatigue, paraesthesia, somnolence and abnormal thinking” value [2] of the same molecule?
A: The value was ≥ 5 % of patients.
